According to patent US11655217B2, “Pyrazole MAGL inhibitors” (H. Lundbeck A/S, priority 2017, dated 2023):

biological target: MAGL (Mus musculus (Mouse), UniProt O35678); experiment: Mouse brain proteomes from inhibitor treated mice (oral gavage, sacrificed 4 h after administration, ABPP analysis); conditions: 5 mg/kg oral gavage
Sequence (O35678 whole entry): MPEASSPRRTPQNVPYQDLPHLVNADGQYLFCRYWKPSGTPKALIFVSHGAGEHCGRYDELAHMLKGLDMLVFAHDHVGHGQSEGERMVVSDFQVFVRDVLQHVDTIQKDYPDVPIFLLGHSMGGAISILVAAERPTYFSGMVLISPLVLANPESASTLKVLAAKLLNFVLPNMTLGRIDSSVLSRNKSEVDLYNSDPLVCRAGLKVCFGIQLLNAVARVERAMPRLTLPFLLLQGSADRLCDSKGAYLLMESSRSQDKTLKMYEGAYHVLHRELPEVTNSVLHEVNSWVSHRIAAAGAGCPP
Method: Preparation of Mouse Brain Proteomes from Inhibitor Treated Mice.
Inhibitors were administered to wild-type C57Bl/6J by oral gavage in a vehicle of polyethylene glycol.

SMILES | MAGL % inh. 5 mg/kg (mouse)
CN(Cc1ccc(C(F)(F)F)c(N2CCCC2)c1)C1(C)CCN(C(=O)n2ccc(C(=O)O)n2)CC1 [Example 385, 1-(4-methyl-4-(methyl(3-(pyrrolidin-1-yl)-4-(trifluoromethyl)benzyl)amino)piper-idine-1-carbonyl)-1H-pyrazole-3-carboxylic acid] | D (% inhibition is greater than or equal to 0% and less than 25%)
O=C(O)c1ccn(C(=O)N2CCC3(CCN(Cc4cc(Cl)cc(Cl)c4Cl)C3)CC2)n1 [Example 337, 1-(2-(2,3,5-trichlorobenzyl)-2,8-diazaspiro[4.5]decane-8-carbonyl)-1H-pyrazole-3-carboxylic acid] | D (% inhibition is greater than or equal to 0% and less than 25%)
C[C@H]1CC[C@H](C)N1c1cc(C(F)(F)F)ccc1CN1CCN(C(=O)n2ccc(C(=O)O)n2)CC1 [Example 360, 1-(4-(2-((2S,5S)-2,5-dimethylpyrrolidin-1-yl)-4-(trifluoromethyl)benzyl)piperazine-1-carbonyl)-1H-pyrazole-3-carboxylic acid] | D (% inhibition is greater than or equal to 0% and less than 25%)
NC(=O)c1ccn(C(=O)N2CC3CN(Cc4ccc(C5(C(=O)O)CCOCC5)cc4C(F)(F)F)CC3C2)n1 (stereo not shown) [Example 35, 4-(4-((5-(3-carbamoyl-1H-pyrazole-1-carbonyl)hexahydropyrrolo[3,4-c]pyrrol-2(1H)-yl)methyl)-3-(trifluoromethyl)phenyl)tetrahydro-2H-pyran-4-carboxylic acid] | D (% inhibition is greater than or equal to 0% and less than 25%)
C[C@@H]1CN(Cc2ccc(C(F)(F)F)cc2N2C3CCC2COC3)CCN1C(=O)n1ccc(C(=O)O)n1 [Example 393, 1-((2R)-4-(2-(3-oxa-8-azabicyclo[3.2.1]octan-8-yl)-4-(trifluoromethyl)benzyl)-2-methylpiperazine-1-carbonyl)-1H-pyrazole-3-carboxylic acid] | D (% inhibition is greater than or equal to 0% and less than 25%)
C[C@H]1CN(Cc2cc(F)cc(Oc3ccc(Cl)cc3)c2)CCN1C(=O)n1ccc(C(=O)O)n1 [Example 347, (S)-1-(4-(3-(4-chlorophenoxy)-5-fluorobenzyl)-2-methylpiperazine-1-carbonyl)-1H-pyrazole-3-carboxylic acid] | D (% inhibition is greater than or equal to 0% and less than 25%)
C[C@H]1CN(Cc2cccc(Oc3ccc(Cl)cc3)c2)CCN1C(=O)n1ccc(C(=O)O)n1 [Example 311, (S)-1-(4-(3-(4-chlorophenoxy)benzyl)-2-methylpiperazine-1-carbonyl)-1H-pyrazole-3-carboxylic acid] | D (% inhibition is greater than or equal to 0% and less than 25%)
O=C(O)c1ccn(C(=O)N2CCC(Oc3cc(N4CCCC4)cc(C(F)(F)F)c3)CC2)n1 [Example 308, 1-(4-(3-(pyrrolidin-1-yl)-5-(trifluoromethyl)phenoxy)piperidine-1-carbonyl)-1H-pyrazole-3-carboxylic acid] | D (% inhibition is greater than or equal to 0% and less than 25%)
C[C@@H]1C[C@H](N(C)Cc2cccc(C(F)(F)F)c2)CCN1C(=O)n1ccc(C(N)=O)n1 [Example 257, 1-((2R,4R)-2-methyl-4-(methyl(3-(trifluoromethyl)benzyl)amino)piperidine-1-carbonyl)-1H-pyrazole-3-carboxamide] | A (% inhibition is greater than or equal to 75%)
O=C(O)c1ccn(C(=O)N2C[C@H]3C[C@H](Oc4cc(Cl)cc(Cl)c4)C[C@H]3C2)n1 [Example 230, 1-(trans-5-(3,5-dichlorophenoxy)octahydrocyclo-penta[c]pyrrole-2-carbonyl)-1H-pyrazole-3-carboxylic acid] | D (% inhibition is greater than or equal to 0% and less than 25%)
